Test results: ChEMBL document CHEMBL1201862, “PubChem BioAssay data set” (2004)
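1) Cells in 96-well plates. 2) Compound, 48 h, 5 concentrations. 3) Linear interpolation between surrounding doses. 4) Unreached endpoint = highest concentration. Here, GI50 denotes the concentration required for 50% inhibition of growth.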 Active and inactive are the calls of the source. Rule as the data show it: active = GI50 up to about 1.1 µM and inactive = higher.

Key:
Assay in all cases: NCI-60 cell line screen, 48 h
MDA-N = system: MDA-N
HOP-18 = system: HOP-18
XF498 = system: XF498
M19-MEL = system: M19-MEL
SNB-78 = system: SNB-78
DMS-273 = system: DMS-273
LXFL 529 = system: LXFL 529
DMS-114 = system: DMS-114
RXF 631 = system: RXF 631

SMILES	GI50 (MDA-N)	GI50 (HOP-18)	GI50 (XF498)	GI50 (M19-MEL)	GI50 (SNB-78)	GI50 (DMS-273)	GI50 (LXFL 529)	GI50 (DMS-114)	GI50 (RXF 631)
Cc1ccc(/N=N/c2c(C)c(C#N)c(=S)n(C3OC(CO)C(O)C(O)C3O)c2-c2ccccc2)cc1 (configuration not stated)	8.07 µM (inactive)								
COc1ccc2c(c1)CCc1c-2nc2cc3c(cc2c1O)OCO3		> 100 µM (inactive)	> 100 µM (inactive)	> 100 µM (inactive)	> 100 µM (inactive)	> 100 µM (inactive)	> 100 µM (inactive)		
CCC(=O)N1C(=O)C(CC)(CC)C(=O)N1C(=O)CC	> 100 µM (inactive)								
CO/N=[N+](\[O-])NC(C)C	> 100 µM (inactive)								
CSc1nc(O)c2cn(Cc3ccccc3)nc2n1		> 100 µM (inactive)		> 100 µM (inactive)	> 100 µM (inactive)	> 100 µM (inactive)	58.6 µM (inactive)	> 100 µM (inactive)	
N#C/C(=C1\N=C(c2ccccc2O)Oc2ccccc21)c1ccc([N+](=O)[O-])cc1	> 100 µM (inactive)								
COc1ccccc1Nc1nc2c([nH]1)c(=O)n(C)c(=O)n2C	> 10 µM (inactive)								
O=c1c(S(=O)(=O)Oc2ccccc2)coc2cc(F)ccc12	> 100 µM (inactive)								
Cc1cc(N(CCC#N)S(=O)(=O)c2ccccc2)ccc1/C=C1\N=C(c2ccc(Cl)cc2)OC1=O			> 100 µM (inactive)		> 100 µM (inactive)	> 100 µM (inactive)	> 100 µM (inactive)	> 100 µM (inactive)	
CN(O)C(=O)Cc1ccccc1			> 100 µM (inactive)	> 100 µM (inactive)	> 100 µM (inactive)	> 100 µM (inactive)	> 100 µM (inactive)	> 100 µM (inactive)	
CC(C)=Cc1cc(C)c2c(O)cc(C)c3c2c1C(C)=C(O)C3=O	33 µM (inactive)								
COc1ccc2c(c1)/C(=C\c1c(C)nc3sc(C)cn13)C(=O)N2	0.124 µM (active)								
CN1CCN(C(=S)N(C)C(=O)c2ccco2)CC1	> 100 µM (inactive)								
COC(=O)C(=O)C(C#N)c1cccc2ccccc12 (configuration not stated)		> 100 µM (inactive)	> 100 µM (inactive)	> 100 µM (inactive)	> 100 µM (inactive)	> 100 µM (inactive)	> 100 µM (inactive)	> 100 µM (inactive)	
COc1ccc2c(c1)N1CCc3cc(OC)c(OC)cc3C1C2 (configuration not stated)		> 100 µM (inactive)	26.5 µM (inactive)	41.2 µM (inactive)	> 100 µM (inactive)	43.3 µM (inactive)	34 µM (inactive)	37.6 µM (inactive)	
O=C1[C@@H]2C(c3ccncc3)=NO[C@@H]2C(=O)N1c1ccc(Cc2ccc(N3C(=O)[C@H]4C(c5ccncc5)=NO[C@H]4C3=O)cc2)cc1		> 100 µM (inactive)		> 100 µM (inactive)	> 100 µM (inactive)	> 100 µM (inactive)	29.3 µM (inactive)	> 100 µM (inactive)	> 100 µM (inactive)
CC(=O)O[C@H]1C[C@@H](O[C@H]2[C@@H](O)C[C@H](O[C@H]3[C@@H](O)C[C@H](O[C@H]4CC[C@@]5(C)[C@H](CC[C@@H]6[C@@H]5C[C@@H](O)[C@]5(C)[C@@H](C7=CC(=O)OC7)CC[C@]65O)C4)O[C@@H]3C)O[C@@H]2C)O[C@H](C)[C@H]1O.CC(=O)O[C@H]1[C@@H](O)C[C@@H](O[C@H]2[C@@H](O)C[C@H](O[C@H]3[C@@H](O)C[C@H](O[C@H]4CC[C@@]5(C)[C@H](CC[C@@H]6[C@@H]5C[C@@H](O)[C@]5(C)[C@@H](C7=CC(=O)OC7)CC[C@]65O)C4)O[C@@H]3C)O[C@@H]2C)O[C@@H]1C	0.0402 µM (active)								
COC(=O)N/N=C(\C)C(CN1CCCCC1)C(C1=C(O)c2ccccc2OC1)c1ccccc1 (configuration not stated)		> 100 µM (inactive)	> 100 µM (inactive)	> 100 µM (inactive)	> 100 µM (inactive)	> 100 µM (inactive)	> 100 µM (inactive)	> 100 µM (inactive)	
Nc1ccn([C@@H]2C[C@H](CO)[C@@H](O)[C@H]2O)c(=O)n1		> 57.7 µM (inactive)		> 57.7 µM (inactive)	> 57.7 µM (inactive)	> 57.7 µM (inactive)	> 57.7 µM (inactive)	> 57.7 µM (inactive)	> 57.7 µM (inactive)
CCOC(=O)c1c(SC(=O)C(C)(C)Oc2ccc(Cl)cc2)n(-c2ccccc2)c(=S)n(-c2ccccc2)c1=O	48.8 µM (inactive)								
C=CCOc1ccc(C(=N/NC(=O)c2ccccc2)/N=N/c2ccc([N+](=O)[O-])cc2)cc1OC	> 100 µM (inactive)								
CCCCOc1ccc(S(=O)(=O)N/C(=N\O)Nc2ccc(Cl)cc2)cc1	17.7 µM (inactive)								
OC(CCl)CN1CC[N+]2(CC1)CC[N+]1(CCN(CC(O)CCl)CC1)CC2 (configuration not stated) [PROSPIDIUM CHLORIDE]		> 50 µM (inactive)	> 50 µM (inactive)	> 50 µM (inactive)		> 50 µM (inactive)	> 50 µM (inactive)	41.6 µM (inactive)	
